Paper PMC9738062, “Selectively Halogenated Flavonolignans—Preparation and Antibacterial Activity” (International Journal of Molecular Sciences, 2022)
Entries after “also recorded” stand apart in the source; their conditions may differ.

Columns and labels:
[1] = Ferric reducing antioxidant power (FRAP); details: Fe2+ equivalents
Description: (§1) To further elucidate how halogenation affects other properties of the flavonoids studied, their 2,2′-azino-bis-(3-ethylbenzothiazoline-6-sulfonic acid) cation (ABTS) and 1,1-diphenyl-2-picrylhydrazyl (DPPH) radical scavenging, the Folin–Ciocalteu reagent (FCR) reducing, the ferric-reducing antioxidant power (FRAP), and the anti-lipoperoxidation activities were evaluated by in vitro methods (Supplementary Information Tables S1 and S2).
(§2) The antiradical activity was evaluated by the ability to scavenge ABTS and DPPH radicals. Reducing capacity was assessed by the ability to reduce the Folin–Ciocalteu reagent (FCR) and ferric ions (FRAP). The ability to inhibit lipid peroxidation of pooled male rat microsomal liver membranes induced by tert-butyl hydroperoxide was also evaluated and the results were expressed as IC50 values.

[2] = ABTS cation radical scavenging; details: vitamin C equivalent antioxidant capacity
Description: as §1, §2

[3] = DPPH radical scavenging; details: 1,1-diphenyl-2-picrylhydrazyl radical scavenging
Description: as §1, §2

[4] = test system: Vibrio campbellii BAA 1119 (AI-2); assay: Viability of the quorum-sensing reporter culture (resazurin assay), AI-2 strain; format: cell-based; details: BAA1119, V. campbellii BAA 1119, resazurin assay, read-out: IC50 (concentration that halved the viability)
Source text: (§3) Commercially available strains of Vibrio campbellii were used to evaluate the ability of flavonoids and their derivatives to inhibit bacterial quorum sensing. V. campbellii uses two types of autoinducing molecules for its communication—N-acyl-homoserine lactones (Autoinducer I, AI-1, strain BAA 1118) and furanosyl borate diester (Autoinducer II, AI-2, strain BAA 1119). AI-1-based communication is mainly used by Gram-negative bacteria, while AI-2-based communication is found in both Gram-negative and Gram-positive bacteria. The mutant strains of V. campbellii BA1118 and BA1119 respond only to AI-1 or AI-2, respectively, and the response to the respective AI concentration is measured as luminescence. The higher the AI concentration, the higher the luminescence signal. The ability to inhibit the communication was expressed as the selectivity index (SI), calculated as the ratio between the concentration that halved the viability (IC50) and the concentration that halved the communication (EC50) of the respective V. campbellii strains. […] The antimicrobial activity of quorum-sensing inhibitors is undesirable because it creates a selection pressure and can lead to the development of resistance.
(§4) The inhibition of bacterial extracellular communication was measured using Vibrio campbellii strains BAA-1118 and BAA-1119. The experiment was performed according to the methods of Szemerédi et al.. Briefly, 5 × 10^5 CFU/mL (colony-forming units per milliliter) were seeded in an Autoinducer Bioassay medium (NaCl 17.5 g/L, MgSO4 12.3 g/L, Casamino acids 2 g/L, 10 mL of 1 M potassium phosphate pH 7.0, 10 mL of 0.1 M L-arginine, and 10 mL of glycerol in 970 mL of deionized water) in a 96-well plate. Immediately, the tested compounds were added at the final concentration of 0.2–200 µM and luminescence was recorded for 16 h by a SpectraMax i3x microplate reader set at 30 °C, an integration time of 10,000 ms, and shaking for 60 s before measurement. […] The selectivity index was calculated as the […]. The EC50 and IC50 were calculated using GraphPad Prism software version 5.00 for Windows with a nonlinear regression curve fit.

[5] = test system: multidrug-resistant S. aureus; assay: Sensitization of antibiotic-resistant bacteria (compound plus breakpoint antibiotic concentration); format: cell-based, Staphylococcus aureus; details: for Effect on viability in combination with chloramphenicol: chloramphenicol 8 mg/L
Description: Clinically relevant antibiotics were selected for sensitization testing according to the European Committee on Antimicrobial Susceptibility Testing (EUCAST). Neither colistin and imipenem at breakpoint concentrations (according to EUCAST, […] and […]) affected the growth of the multidrug-resistant clinical strain of P. aeruginosa. Similarly, neither chloramphenicol and gentamicin at breakpoint concentrations ([…], respectively) affected the multidrug-resistant clinical strain of S. aureus. Flavonoids and their derivatives (1–40 µM) were used in combination therapy, along with the breakpoint concentration of antibiotics. After co-incubation, the minimum inhibitory concentration of flavonoids inhibiting the visible growth of bacteria was determined (Table 2).
Clinical isolates of P. aeruginosa and S. aureus were obtained from the General University Hospital in Prague (Prague, Czech Republic). P. aeruginosa was resistant to ciprofloxacin, oxacillin, ticarcillin, colistin, gentamicin, and imipenem. S. aureus was resistant to ciprofloxacin, gentamicin, erythromycin, chloramphenicol, clindamycin, oxacillin, cefotaxime, and vancomycin. Bacteria were cultivated in Mueller–Hinton broth (MH broth, Merck). The susceptibility of the bacteria was evaluated by the minimum inhibitory concentrations (MIC). The MIC of derivatives in the presence of the antibiotic cut-off concentration was determined according to ISO 20776-1: 2020. The antibiotic cut-off concentration was chosen according to the European Committee on Antimicrobial Susceptibility Testing (EUCAST, Clinical breakpoints—bacteria (ver. 11.0), 1 January 2021). The 40 µM concentration of the derivatives was chosen as the highest concentration for the tests. Cell viability was determined by measuring absorbance (A590 nm) after 24 h incubation at 37 °C, 150 rpm.

[6] = test system: Vibrio campbellii BAA 1119 (AI-2); assay: microbe, parasite or virus in culture; format: cell-based; details: for EC50: Vibrio campbellii, BAA1119, 16 h, read-out: EC50 (concentration that halved the communication); for SI (selectivity index): ratio IC50 (viability) / EC50 (communication), BAA 1119
Source text: as §3, §4

[7] = test system: Vibrio campbellii BAA 1118 (AI-1); assay: microbe, parasite or virus in culture; format: cell-based; details: for EC50: Vibrio campbellii, BAA1118, 16 h, read-out: EC50 (concentration that halved the communication); for SI (selectivity index): ratio IC50 (viability) / EC50 (communication), BAA 1118
Source text: as §3, §4

[8] = test system: Vibrio campbellii BAA 1118 (AI-1); assay: Viability of the quorum-sensing reporter culture (resazurin assay), AI-1 strain; format: cell-based; details: BAA1118, V. campbellii BAA 1118, resazurin assay, read-out: IC50 (concentration that halved the viability)
Source text: as §3, §4

## O=C1c2c(O)cc(O)cc2OC(c2ccc(O)c(O)c2)C1O (stereo not shown) [compound 1, taxifolin, reference compound]
[1]
  FRAP [Fe2+eq]: 1.45 ± 0.07 Fe2+eq
[2]
  ABTS [CEAC]: 1.08 ± 0.02 CEAC
[3]
  IC50: 2.91 µM
[4]
  IC50: 80 ± 1.7 µM
[5]; flavonoid 40 µM, 24 h
  Effect on viability in combination with chloramphenicol: -
[6]
  EC50: 7.3 ± 0.3 µM
  SI (selectivity index): 11.0 ± 0.6
[7]
  EC50: 63.7 ± 2.7 µM
  SI (selectivity index): 1.1 ± 0.1
[8]
  IC50: 71 ± 3 µM

## COc1cc([C@H]2Oc3cc([C@H]4Oc5c(Br)c(O)c(Br)c(O)c5C(=O)[C@@H]4O)ccc3O[C@@H]2CO)ccc1O [compound 12, 6,8-dibromosilybin A]
[1]
  FRAP [Fe2+eq]: 0.084 ± 0.004 Fe2+eq
[2]
  ABTS [CEAC]: 0.30 ± 0.04 CEAC
[3]
  IC50: 383 µM
[4]
  IC50: 80.5 ± 4.8 µM
[5]; flavonoid 40 µM, 24 h
  Effect on viability in combination with chloramphenicol: -
[6]
  EC50: 13.2 ± 0.3 µM
  SI (selectivity index): 6.1 ± 0.5
[7]
  EC50: 12.2 ± 0.4 µM
  SI (selectivity index): 1.9 ± 0.2
[8]
  IC50: 23.5 ± 1 µM

## COc1cc([C@@H]2Oc3cc([C@H]4Oc5c(Br)c(O)c(Br)c(O)c5C(=O)[C@@H]4O)ccc3O[C@H]2CO)cc(Br)c1O [compound 22, 6,8,21-tribromosilybin B]
[1]
  FRAP [Fe2+eq]: 0.062 ± 0.002 Fe2+eq
[2]
  ABTS [CEAC]: 0.17 ± 0.01 CEAC
[3]
  IC50: 238 µM
[4]
  IC50: 34.4 ± 1.8 µM
[5]; flavonoid 40 µM, 24 h
  Effect on viability in combination with chloramphenicol: -
[5]; gentamicin 1 mg/L, flavonoid 40 µM, 24 h
  Effect on viability in combination with gentamicin: reversion of resistance
[5]; gentamicin breakpoint concentration, compound 40 µM
  Gentamicin-resistant phenotype of S. aureus (result in words): reversed the resistant phenotype to a sensitive one; also recorded: revert the resistant phenotype into a sensitive one
[6]
  EC50: 12 ± 0.5 µM
  SI (selectivity index): 2.9 ± 0.3
[7]
  EC50: 4.3 ± 0.3 µM
  SI (selectivity index): 1.7 ± 0.1
[8]
  IC50: 7.3 ± 0.1 µM

## COc1cc([C@@H]2Oc3cc([C@H]4Oc5c(Br)c(O)c(Br)c(O)c5C(=O)[C@@H]4O)ccc3O[C@H]2CO)ccc1O [compound 14, 6,8-dibromosilybin B]
[1]
  FRAP [Fe2+eq]: 0.081 ± 0.004 Fe2+eq
[2]
  ABTS [CEAC]: 0.35 ± 0.04 CEAC
[3]
  IC50: 256 µM
[4]
  IC50: 60.2 ± 3.4 µM
[5]; flavonoid 40 µM, 24 h
  Effect on viability in combination with chloramphenicol: -
[6]
  EC50: 19.3 ± 0.5 µM
  SI (selectivity index): 3.1 ± 0.3
[7]
  EC50: 14.7 ± 0.7 µM
  SI (selectivity index): 1.1 ± 0.1
[8]
  IC50: 16.6 ± 0.8 µM

## COc1cc([C@H]2Oc3cc([C@H]4Oc5cc(O)c(Br)c(O)c5C(=O)[C@@H]4O)ccc3O[C@@H]2CO)ccc1O [compound 11, 6-Bromosilybin A]
[1]
  FRAP [Fe2+eq]: 0.072 ± 0.002 Fe2+eq
[2]
  ABTS [CEAC]: 0.60 ± 0.04 CEAC
[3]
  IC50: 472 µM
[4]
  IC50: 51.5 ± 0.6 µM
[5]; flavonoid 40 µM, 24 h
  Effect on viability in combination with chloramphenicol: -
[6]
  EC50: 9.4 ± 0.5 µM
  SI (selectivity index): 5.5 ± 0.3
[7]
  EC50: 24.4 ± 0.7 µM
  SI (selectivity index): 2.1 ± 0.1
[8]
  IC50: 51.7 ± 0.7 µM
